We go through six compounds from patent US9682024B2, “Protection against sunburn and skin problems with topical and orally-ingested dosages of zeaxanthin” (ZeaVision, LLC, priority 2002, dated 2017).

The structures appear in SMILES notation.

For data set [1] the following is noted: according to Lorenz, US 6,433,025; cited from earlier work.
For a further data set, the system named is retinas. The conditions noted are these: in vivo; cited from earlier work.
A further data set concerns human fibroblast cells. The conditions noted are these: Eichler et al 2002; cited from earlier work.
The test system of data set [2] is skin. The data set can be described thus: Darkening of skin color after oral zeaxanthin. It is filed as in vivo, human. How it is done: (§1) That dosage was in the range of about 60 mg of zeaxanthin per day for roughly 2 weeks, then about 80 mg/day for a week).
(§2) One coworker began taking 10 mg/day during April, and increased to 20 mg/day during May, and then increased to 40 mg/day during June. […] In July, they increased their dosage to 80 mg/day during several week-long periods, to see what effect it would have on skin color, and on sunburn resistance.
(§3) After seeing and hearing the highly positive results obtained by the two people described in Examples 1 and 2, another coworker decided to also begin taking zeaxanthin at 40 mg/day, starting a couple of weeks before going on a summer vacation with their family.
(§4) A third coworker began taking 10 mg of zeaxanthin per day. Although they were aware of the above-described anecdotal reports of sunburn protection being provided by higher dosages, they decided to not alter their dosage, and they stayed at a dosage of 10 mg/day.
Promptly after that baseline determination, this person began ingesting 30 mg of zeaxanthin per day (10 mg with […] morning meal, and 20 mg with […] evening meal, using the 10 mg capsules available from ZeaVision LLC). During that time, […] continued to take the same anti-oxidant regimen as before. […] […] then re-tested […], using the same UV lamp and procedures as before.

For data set [3], the system named is skin. As to the kind of experiment: Sunburn protection during prolonged exposure to direct sunlight after oral zeaxanthin. It counts as in vivo, human. How it is done:
as §1
While in the Caribbean, they intentionally exposed themself to direct sunlight at a substantially higher intensity than they normally received in their home state of Missouri, for sufficient periods of time to give them an “onset” type of sunburn, which would convert to a suntan over a span of several days if they took proper care of their skin and put lotion on it. […] Instead, any mild redness they experienced in the evening, at the end of a day with a prolonged session in the sun, was not accompanied by sensations of pain, burning, tightness, or dryness in the skin, and it converted to a normal (or slightly reddish, but not uncomfortable) suntan within less than 24 hours.
as §2
On a couple of weekend days during July, and during a family vacation in early August, they deliberately subjected themself to prolonged sun exposure without any sun-blocking lotion, including sessions that normally would have caused them substantial or severe sunburns accompanied by serious discomfort. Instead of receiving those types of sunburns, by the evening of a day like that, they could detect some redness in their skin color, and a heightened condition of skin sensitivity; however, they felt no serious discomfort or sense of “radiating heat” in their skin, and no interference with their ability to sleep comfortably; in addition, by the following day, the redness appeared to be entirely gone.
as §3, §4

The conditions of data set [4]: in vivo.
Source text: One aspect of that project involved testing both zeaxanthin and lutein, in various dosages and formulations, to evaluate the increases that would result in circulating blood, and in retinal tissue, in human volunteers. A set of tests on human volunteers was developed with assistance by outside experts with skill and experience in that type of planning, and proper steps were taken to obtain informed consent from all volunteers.
For data set [5] the following is noted: reported to US-FDA by Roche Vitamins Inc.; cited from earlier work.
For data set [6] the following is noted: cited from earlier work.
Data set [7] can be described thus: Tolerability and excretion of high oral zeaxanthin dosages. It is filed as in vivo, human.
For data set [8], the system named is skin. The data set can be described thus: Minimal erythemal dosage (MED) test with medical-grade UV lamp after oral zeaxanthin. It counts as in vivo, human.
For a further data set, the system named is lung cancer. The conditions noted are these: smokers; daily ingestion of 30 to 60 mg/day; cited from earlier work.
In the next data set the test system is skin cells in culture. The following applies: quoted from Biesalski et al 2001; cited from earlier work.
Data set [9] deals with skin diseases such as porphyria. The conditions noted are these: cited from earlier work.

For the compound `CC1=C(/C=C/C(C)=C/C=C/C(C)=C/C=C/C=C(C)/C=C/C=C(C)/C=C/C2=C(C)C(=O)[C@@H](O)CC2(C)C)C(C)(C)C[C@H](O)C1=O` [astaxanthin], the “potency as anti-oxidant protective agent versus other carotenoids” value in data set [1] is “roughly ten times the potency”.
On to `CC1=C(/C=C/C(C)=C/C=C/C(C)=C/C=C/C=C(C)/C=C/C=C(C)/C=C/C2=C(C)C(=O)CCC2(C)C)C(C)(C)CCC1=O` [canthaxanthin], for which the retinal side effect result in the data set with retinas was “canthaxanthin crystals were being formed and deposited in the retinas”.
As to `CC1=C[C@H](O)CC(C)(C)[C@H]1/C=C/C(C)=C/C=C/C(C)=C/C=C/C=C(C)/C=C/C=C(C)/C=C/C1=C(C)C[C@@H](O)CC1(C)C` [lutein], the “amount of carotenoid needed for optimal protection” value (from here on “amount of carotenoid needed”) in the data set on human fibroblast cells was 0.30 nmol/mg protein.
In the case of `CC(C)=CCC/C(C)=C/C=C/C(C)=C/C=C/C(C)=C/C=C/C=C(C)/C=C/C=C(C)/C=C/C=C(\C)CCC=C(C)C` [lycopene], the “amount of carotenoid needed” value in the data set on human fibroblast cells is reported as 0.05 nmol/mg protein.
As for `CC1=C(/C=C/C(C)=C/C=C/C(C)=C/C=C/C=C(C)/C=C/C=C(C)/C=C/C2=C(C)C[C@@H](O)CC2(C)C)C(C)(C)C[C@H](O)C1` [zeaxanthin], the skin color change entry in the data set with skin [2] (Example 1, about 60 mg/day roughly 2 weeks, then about 80 mg/day for a week) is “noticeable change in the color and tint of their skin”; in the data set on skin [2] (Example 2 coworker, 40 mg/day), “slight but noticeable darkening of their skin”; with skin [2] (Example 2 coworker, 80 mg/day during several week-long periods) it was “noticeably darker”; with skin [2] (Example 3 coworker, 40 mg/day for a couple of weeks), “mildly darker and more tanned shade”; in the data set with skin [2] (Example 4 coworker, 10 mg/day), “could not detect any change in their skin color”; with skin [2] (first inventor, 30 mg/day for three weeks), “slightly perceptible color change in the palms of the hands”. In addition, the skin coloration entry in the data set with skin [2] (all volunteers who ingested 30 mg or more per day) is listed as “darkened coloration”. Further, the “time for mild redness to convert to normal suntan” value in the data set on skin [3] (Example 1, about 60 then 80 mg/day) is “less than 24 hours”. Further, the “sunburn after prolonged direct sunlight” value in the data set on skin [3] (Example 1, about 60 then 80 mg/day, Caribbean) is recorded as “did not get sunburned in the normal manner”. Besides, in the data set on skin [3] (Example 2 coworker, up to 80 mg/day), the “sunburn after prolonged sun exposure without sun-blocking lotion” value is on record as “excellent protection against sunburn”. In the data set on skin [3] (Example 3 coworker, 40 mg/day), the “sunburn after prolonged sun exposure with no protective lotion” value is reported as “had not suffered any sunburns”. In addition, the “sunburn after prolonged session of exposure to the sun” value in the data set on skin [3] (Example 4 coworker, 10 mg/day) is “suffered a noticeable sunburn”. For the same compound, in data set [4], the “dosage response in circulating blood concentrations” value is on record as “valid dosage response”. In data set [5], the “No Adverse Effect Level (NOAEL)” value is reported as 1200 mg/day. In addition, in data set [6], the solubility in water entry is “not soluble in water”. Moreover, in [7] (high dosages, humans), the fecal coloration entry is given as “changes in fecal coloration”. For the same compound, the adverse effects entry in data set [7] (second inventor, 80 mg/day) is given as “no adverse effects”. Moreover, the “MED increase, post-ingestion compared to pre-ingestion” value in the data set on skin [8] (each volunteer of the UV lamp tests, 30 mg/day or higher) is more than 30%. For the same compound, in the data set on skin [8] (first inventor, 60 mg/day for another 3 weeks, baseline 7), the “MED level relative to baseline value” is on record as “more than double”. For the same compound, the “post-ingestion MED (minimal erythemal dosage)” value worked out at 10.5 min in the data set with skin [8] (first inventor, oral 30 mg/day for 3 weeks, baseline 7.0 minutes, on top of anti-oxidant regimen); 16 min with skin [8] (first inventor, then 60 mg/day for another 3 weeks, baseline 7.0 minutes); 10 min with skin [8] (second volunteer, 60 mg/day for 20 days, baseline 5.0 minutes). The “MED value relative to baseline” value in the data set on skin [8] (second volunteer, 60 mg/day for 20 days) is given as “doubled”. Also, in the data set with skin [8] (two subjects after ingesting zeaxanthin, UV up to >20 minutes and up to 15 minutes), the “redness of longest-duration UV-exposed skin patches” value is “plateau effect”. Further, in the data set with skin [8] (two subjects, post-ingestion tests, after several days), the “peeling or flaking of clearly UV-burned spots” value was “did not begin peeling or flaking”.
`CC1=C(/C=C/C(C)=C/C=C/C(C)=C/C=C/C=C(C)/C=C/C=C(C)/C=C/C2=C(C)CCCC2(C)C)C(C)(C)CCC1` [β-carotene]: in the data set on lung cancer, the “elevation of risk of lung cancer” value is approximately 30%. Moreover, in the data set with skin cells in culture, the “oxidant properties in cultured skin cells” value was “unexpected prooxidant properties”. In addition, in data set [9], the “effective dosage level to treat skin diseases” value is listed as 180 mg/day. In addition, in the data set on human fibroblast cells, the “amount of carotenoid needed” value is 0.40 nmol/mg protein.
